Test results reported in article PMC8148468, “Shikimic acid protects skin cells from UV-induced senescence through activation of the NAD+-dependent deacetylase SIRT1” (Aging (Albany NY), 2021).

Assays:
[1] = test system: primary human dermal fibroblasts (HDFs); settings: female, human
Description: In our efforts to identify novel factors that could prevent skin cell senescence, we developed a screening process to identify new modulators of the protective role of sirtuins in UV-induced senescence. For this purpose, we established a culture of primary human dermal fibroblasts (HDFs). […] Our first step in the screening was to establish the optimal concentrations of these compounds in the case of HDFs. […] Once established, we took these parameters into account to decide the specific working range of concentrations for each compound.
Human dermal fibroblasts (HDFs) (Promocell, Germany) from 40-year old Caucasian women were used as the in vitro model for compound viability and efficacy screening. Cells were cultured in Dulbecco's modified eagle medium (DMEM) low glucose (Biowest, France) supplemented with 10% fetal bovine serum (FBS) (Capricorn Scientific, Germany) and 10 U/mL penicillin/streptomycin (Biowest, France) in a humidified incubator at 37° C and 5% CO2. For cell passage, cells at 80% confluence were trypsinized and plated at 60% confluence. Cells between passage 13 and 18 were used for the assays. For the SIRT1 in vitro assay, HEK293 cells (ATCC, USA), used to transfect and immunoprecipitate SIRT1 protein, were grown in DMEM high glucose (Thermo Fisher Scientific, USA), supplemented with 10% FBS in a humidified incubator at 37° C and 5% CO2. The following experiments were all performed in triplicate.
(§1) The protocol for senescence induction using UVB irradiation is described in the Supplementary Methods. SA-β-Gal staining, WST-1, sulforhodamine B (SRB) and trypan blue assays were performed as previously described. For the siRNA experiments, the protocol for senescence induction using UVB irradiation was the same as in the Supplementary Methods. Specific siRNA (Horizon discovery, UK) for SIRT1, SIRT2, SIRT6, BiP or scramble siRNA were incubated for 6 hours before each irradiation step.

[2] = test system: HDF cells; experiment: SRB and Trypan blue cell viability assays; assay type: cell-based, human; settings: Shikimic acid 5, 10, 25 and 50 mM, 24h
Description: Student T-test, *p<0.05, **p<0.01, ***p<0.001.
as §1

[3] = test system: IL-6; experiment: IL-6 mRNA levels (qPCR); assay type: cell-based, human; settings: UVB-irradiated HDF, SA 10, 25, 50 mM -/+ EX-527 1 μM
Description: Figure 3 (A) Schematic representation of the protocol for senescence induction using UVB irradiation and study of EX527 involvement in the effect of Shikimic acid. Cells were treated with or without shikimic acid -/+ EX-527 from day 1 until day 7 after seeding, irradiated with UVB on days 2 and 5 and harvested for analysis on day 7. (B) Phase-contrast (left column) and bright field (right column) microscope images of β-Gal staining showing non-irradiated cells non-treated and treated with shikimic acid (10, 25 and 50 mM), UVB-irradiated cells non-treated and treated with shikimic acid (10, 25 and 50 mM), shikimic acid (10, 25 and 50 mM) + EX-527 1 μM and EX-527 1 μM. […] SIRT1 activity was then evaluated by analyzing acetylation of H3K9, H4K16 and p53K382 by Western blot. […]
RNA was extracted from cell pellets using the Total RNA Purification Kit (Norgen, Canada), according to the manufacturer’s protocol. Extracted RNA was quantified using a NanoDrop® ND-1000 UV-Vis Spectrophotometer (Thermo Fisher Scientific, USA) and 300 ng of RNA were retrotranscribed to cDNA using the PrimeScriptTM RT reagent kit (Takara Bio Inc., Japan). cDNA was diluted 1/10 in ultrapure water and qPCR mix was prepared by adding cDNA (12 ng), SYBR green supermix (Bio Rad, USA), forward and reverse primers (0.2μM). […] The results were analyzed with Bio-Rad CFX Manager software. […]

[4] = test system: p21; experiment: p21 mRNA levels (qPCR); assay type: cell-based, human; settings: UVB-irradiated HDF, SA treatment
Description: RNA was extracted from cell pellets using the Total RNA Purification Kit (Norgen, Canada), according to the manufacturer’s protocol. […] The primers and their respective sequences are listed in Supplementary Table 1. qPCR protocol included one step at 95° C for 30 s, 40 cycles at 95° C for 10s, and 60° C for 1min. The results were analyzed with Bio-Rad CFX Manager software. BACT was used as a housekeeping gene to normalize gene expression. page 6: Supplementary Figure 6. Quantification (n=3) of the percentage of cells in each cell cycle phase and poliploydies in (A) non-irradiated cells treated with Shikimic acid at the indicated doses and (B) UVB-irradiated cells treated with Shikimic acid at the indicated doses, following the senescence induction method described in Figure 2A. (C) Relative p21 mRNA levels (n=3) in UVB-irradiated cells treated with Shikimic acid at the indicated doses, following the senescence induction method described in Figure 2A. (D) Second (PC-2) and third (PC-3) principal components in the fingerprint region (1800–950 cm−1) from the samples mentioned in Figure 4G. Student T-test, *p<0.05, **p<0.01, ***p<0.001. www.aging-us.com 6 AGING (1 picture or pasted object on this page, not shown here)

For `O=C(O)C1=C[C@@H](O)[C@@H](O)[C@H](O)C1` [Shikimic acid], the “LD50” value [1] was 58.44 mM, the “Max. non-cyt. doses” value [1] was 25 mM and the “cytotoxicity (SRB/trypan blue assay)” value [2] was “no differences in cytotoxicity”. For the same compound, the “IL-6 mRNA levels” value [3] was “induced a reduction in the levels of expression of the inflammatory cytokine IL-6” and the “p21 mRNA levels” value [4] was “did not observe any clear effect”.
